Data published in patent EP4722207A1, “OXOISOINDOLINYL-SUBSTITUTED TETRAHYDROPYRIMIDINEDIONE DERIVATIVE AND USE THEREOF” (Gluetacs Therapeutics (Shanghai) Co., Ltd., priority 2023, dated 2024).

Experiments:
IKZF1 = molecular target: T1, IKZF1 (Homo sapiens, UniProt Q13422+Q96SW2); assay: Western-blot assay, substrate protein degradation in hPBMCs: IKZF1; assay type: cell-based; conditions: 24 hours of compound treatment, 50 nM and 500 nM
T1 construct: effects of the compounds of the present disclosure on the expression of target proteins in cells; endogenous in cells; host or cells: human PBMCs (hPBMCs)
T1 sequence (Q13422 whole entry): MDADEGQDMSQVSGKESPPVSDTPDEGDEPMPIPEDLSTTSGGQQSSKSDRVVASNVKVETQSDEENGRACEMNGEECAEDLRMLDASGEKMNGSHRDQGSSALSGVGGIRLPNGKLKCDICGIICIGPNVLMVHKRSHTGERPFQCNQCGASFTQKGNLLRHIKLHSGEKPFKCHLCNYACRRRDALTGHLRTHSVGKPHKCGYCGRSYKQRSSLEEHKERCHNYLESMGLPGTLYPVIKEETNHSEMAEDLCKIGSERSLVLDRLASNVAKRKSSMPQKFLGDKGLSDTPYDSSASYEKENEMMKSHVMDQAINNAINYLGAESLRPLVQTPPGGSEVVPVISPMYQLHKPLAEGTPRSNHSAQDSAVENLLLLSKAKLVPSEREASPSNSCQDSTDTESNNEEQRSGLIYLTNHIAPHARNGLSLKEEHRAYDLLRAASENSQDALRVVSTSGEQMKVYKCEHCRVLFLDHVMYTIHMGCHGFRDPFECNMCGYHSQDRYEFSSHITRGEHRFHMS
T1 sequence (Q96SW2 whole entry): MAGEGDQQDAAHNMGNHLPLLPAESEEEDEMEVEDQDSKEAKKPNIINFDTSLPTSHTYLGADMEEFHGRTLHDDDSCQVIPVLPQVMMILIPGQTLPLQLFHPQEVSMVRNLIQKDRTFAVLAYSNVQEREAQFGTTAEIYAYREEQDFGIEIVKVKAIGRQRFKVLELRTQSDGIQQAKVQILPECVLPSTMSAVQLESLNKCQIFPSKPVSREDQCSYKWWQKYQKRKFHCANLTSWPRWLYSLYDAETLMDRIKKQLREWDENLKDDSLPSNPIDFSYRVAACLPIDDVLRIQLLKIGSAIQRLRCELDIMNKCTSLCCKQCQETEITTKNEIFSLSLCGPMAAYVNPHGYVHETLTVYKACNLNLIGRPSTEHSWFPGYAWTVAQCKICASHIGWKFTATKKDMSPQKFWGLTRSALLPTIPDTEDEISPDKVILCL
T1 sequence (Q16531 whole entry partner): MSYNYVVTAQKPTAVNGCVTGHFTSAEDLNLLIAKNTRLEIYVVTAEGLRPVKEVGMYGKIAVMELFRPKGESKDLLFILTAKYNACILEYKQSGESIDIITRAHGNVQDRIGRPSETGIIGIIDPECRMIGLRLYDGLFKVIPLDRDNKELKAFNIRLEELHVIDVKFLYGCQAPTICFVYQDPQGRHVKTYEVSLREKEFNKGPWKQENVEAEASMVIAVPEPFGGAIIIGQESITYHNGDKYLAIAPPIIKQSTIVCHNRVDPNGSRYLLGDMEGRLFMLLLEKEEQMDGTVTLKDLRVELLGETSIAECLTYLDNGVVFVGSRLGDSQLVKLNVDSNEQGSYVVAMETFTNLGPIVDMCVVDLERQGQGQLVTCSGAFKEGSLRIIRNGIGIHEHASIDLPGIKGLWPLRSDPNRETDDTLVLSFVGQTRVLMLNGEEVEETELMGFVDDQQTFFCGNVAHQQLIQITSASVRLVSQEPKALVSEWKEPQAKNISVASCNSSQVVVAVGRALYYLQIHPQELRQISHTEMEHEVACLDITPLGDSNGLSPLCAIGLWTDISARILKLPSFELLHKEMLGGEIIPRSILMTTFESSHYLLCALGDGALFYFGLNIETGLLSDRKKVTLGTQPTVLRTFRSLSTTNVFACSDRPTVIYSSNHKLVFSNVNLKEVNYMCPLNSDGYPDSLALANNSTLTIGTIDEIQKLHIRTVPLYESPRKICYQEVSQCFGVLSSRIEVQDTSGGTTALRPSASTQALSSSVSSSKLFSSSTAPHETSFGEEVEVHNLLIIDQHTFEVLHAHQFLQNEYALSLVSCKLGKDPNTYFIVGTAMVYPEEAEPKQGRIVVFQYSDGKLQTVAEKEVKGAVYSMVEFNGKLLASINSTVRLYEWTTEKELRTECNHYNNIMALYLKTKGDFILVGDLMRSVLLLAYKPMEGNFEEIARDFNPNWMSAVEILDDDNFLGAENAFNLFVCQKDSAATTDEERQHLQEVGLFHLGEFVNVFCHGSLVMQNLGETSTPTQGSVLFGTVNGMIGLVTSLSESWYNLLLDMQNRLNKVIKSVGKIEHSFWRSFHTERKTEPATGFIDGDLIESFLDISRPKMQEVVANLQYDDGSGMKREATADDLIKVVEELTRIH

GSPT1 = molecular target: T2, GSPT1 (Homo sapiens, UniProt P15170+Q96SW2); assay: Western-blot assay, substrate protein degradation in hPBMCs: GSPT1; assay type: cell-based; conditions: 24 hours of compound treatment, 50 nM and 500 nM
T2 construct: effects of the compounds of the present disclosure on the expression of target proteins in cells; endogenous in cells; host or cells: human PBMCs (hPBMCs)
T2 sequence (P15170 whole entry): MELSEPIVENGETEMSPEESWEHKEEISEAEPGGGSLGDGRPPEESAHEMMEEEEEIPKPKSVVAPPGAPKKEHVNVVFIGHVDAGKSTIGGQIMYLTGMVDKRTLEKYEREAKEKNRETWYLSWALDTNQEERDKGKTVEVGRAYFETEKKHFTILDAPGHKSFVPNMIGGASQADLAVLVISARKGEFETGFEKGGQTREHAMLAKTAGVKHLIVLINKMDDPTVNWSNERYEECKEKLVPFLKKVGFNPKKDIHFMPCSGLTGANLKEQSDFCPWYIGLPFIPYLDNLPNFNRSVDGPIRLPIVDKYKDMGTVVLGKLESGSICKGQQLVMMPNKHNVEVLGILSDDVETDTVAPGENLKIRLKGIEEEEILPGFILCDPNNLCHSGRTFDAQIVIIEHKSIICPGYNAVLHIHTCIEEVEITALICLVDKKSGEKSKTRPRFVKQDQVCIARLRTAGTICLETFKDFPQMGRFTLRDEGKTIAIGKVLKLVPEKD
T2 sequence (Q96SW2 whole entry): as the sequence (Q96SW2 whole entry) above
T2 sequence (Q16531 whole entry partner): as the sequence (Q16531 whole entry partner) above

CK1α = molecular target: T3, CK1α (Homo sapiens, UniProt P48729+Q96SW2); assay: Western-blot assay, substrate protein degradation in hPBMCs: CK1α; assay type: cell-based; conditions: 24 hours of compound treatment, 50 nM and 500 nM
T3 construct: effects of the compounds of the present disclosure on the expression of target proteins in cells; endogenous in cells; host or cells: human PBMCs (hPBMCs)

IKZF3 = molecular target: T4, IKZF3 (Homo sapiens, UniProt Q96SW2+Q9UKT9); assay: Western-blot assay, substrate protein degradation in hPBMCs: IKZF3; assay type: cell-based; conditions: 24 hours of compound treatment, 50 nM and 500 nM
T4 construct: effects of the compounds of the present disclosure on the expression of target proteins in cells; endogenous in cells; host or cells: human PBMCs (hPBMCs)
T4 sequence (Q9UKT9 whole entry): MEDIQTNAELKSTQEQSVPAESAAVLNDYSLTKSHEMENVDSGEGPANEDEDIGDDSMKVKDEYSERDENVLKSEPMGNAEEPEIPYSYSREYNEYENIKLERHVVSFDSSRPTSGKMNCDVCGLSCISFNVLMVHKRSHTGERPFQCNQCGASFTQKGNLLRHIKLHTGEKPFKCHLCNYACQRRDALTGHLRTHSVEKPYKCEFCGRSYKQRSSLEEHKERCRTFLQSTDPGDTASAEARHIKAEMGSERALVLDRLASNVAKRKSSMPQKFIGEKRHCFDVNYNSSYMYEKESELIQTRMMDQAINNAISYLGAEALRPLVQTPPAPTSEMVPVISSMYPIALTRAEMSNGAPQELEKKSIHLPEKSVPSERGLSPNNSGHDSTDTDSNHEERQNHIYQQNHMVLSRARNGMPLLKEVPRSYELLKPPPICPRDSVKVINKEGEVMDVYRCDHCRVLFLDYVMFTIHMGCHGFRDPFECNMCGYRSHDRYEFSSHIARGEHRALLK
T4 sequence (Q96SW2 whole entry): as the sequence (Q96SW2 whole entry) above
T4 sequence (Q16531 whole entry partner): as the sequence (Q16531 whole entry partner) above

WEE1 = molecular target: T5, WEE1 (Homo sapiens, UniProt P30291+Q96SW2); assay: Western-blot assay, substrate protein degradation in hPBMCs: WEE1; assay type: cell-based; conditions: 24 hours of compound treatment, 50 nM and 500 nM
T5 construct: effects of the compounds of the present disclosure on the expression of target proteins in cells; endogenous in cells; host or cells: human PBMCs (hPBMCs)
T5 sequence (P30291 whole entry): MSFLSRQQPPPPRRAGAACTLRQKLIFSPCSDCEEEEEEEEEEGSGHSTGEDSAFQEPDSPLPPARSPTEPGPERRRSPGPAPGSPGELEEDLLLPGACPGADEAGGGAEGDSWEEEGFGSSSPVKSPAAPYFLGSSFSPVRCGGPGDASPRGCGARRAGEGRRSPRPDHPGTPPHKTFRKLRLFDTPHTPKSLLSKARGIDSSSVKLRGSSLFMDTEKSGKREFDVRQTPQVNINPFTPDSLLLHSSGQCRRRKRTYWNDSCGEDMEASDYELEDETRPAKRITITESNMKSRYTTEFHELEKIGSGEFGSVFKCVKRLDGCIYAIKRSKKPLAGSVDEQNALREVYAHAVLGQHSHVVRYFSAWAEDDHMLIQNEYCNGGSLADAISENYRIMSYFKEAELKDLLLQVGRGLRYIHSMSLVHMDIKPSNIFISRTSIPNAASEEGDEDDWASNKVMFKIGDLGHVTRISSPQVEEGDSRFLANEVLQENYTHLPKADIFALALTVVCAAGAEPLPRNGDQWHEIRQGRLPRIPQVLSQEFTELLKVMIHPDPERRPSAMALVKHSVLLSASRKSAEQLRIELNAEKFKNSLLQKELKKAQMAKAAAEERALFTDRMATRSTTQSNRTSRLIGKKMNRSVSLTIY
T5 sequence (Q96SW2 whole entry): as the sequence (Q96SW2 whole entry) above
T5 sequence (Q16531 whole entry partner): as the sequence (Q16531 whole entry partner) above

IKZF2 = molecular target: T6, IKZF2 (Homo sapiens, UniProt Q96SW2+Q9UKS7); assay: Western-blot assay, substrate protein degradation in hPBMCs: IKZF2; assay type: cell-based; conditions: 24 hours of compound treatment, 50 nM and 500 nM
T6 construct: effects of the compounds of the present disclosure on the expression of target proteins in cells; endogenous in cells; host or cells: human PBMCs (hPBMCs)
T6 sequence (Q9UKS7 whole entry): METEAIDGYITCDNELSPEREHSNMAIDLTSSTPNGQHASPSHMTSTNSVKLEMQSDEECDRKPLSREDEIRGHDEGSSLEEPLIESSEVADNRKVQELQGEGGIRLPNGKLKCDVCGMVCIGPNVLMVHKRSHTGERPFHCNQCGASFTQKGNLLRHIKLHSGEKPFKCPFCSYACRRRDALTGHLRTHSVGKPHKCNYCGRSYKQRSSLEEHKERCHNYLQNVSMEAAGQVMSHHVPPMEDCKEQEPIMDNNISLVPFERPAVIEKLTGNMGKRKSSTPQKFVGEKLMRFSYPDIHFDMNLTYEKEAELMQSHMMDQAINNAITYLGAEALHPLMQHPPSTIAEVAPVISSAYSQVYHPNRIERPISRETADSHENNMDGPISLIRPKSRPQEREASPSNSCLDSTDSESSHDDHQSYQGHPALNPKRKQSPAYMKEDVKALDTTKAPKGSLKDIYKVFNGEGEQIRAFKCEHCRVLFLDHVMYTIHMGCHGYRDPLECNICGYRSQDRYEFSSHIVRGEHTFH
T6 sequence (Q96SW2 whole entry): as the sequence (Q96SW2 whole entry) above
T6 sequence (Q16531 whole entry partner): as the sequence (Q16531 whole entry partner) above

H292 = assay: Cell viability assay (CellTiter-Meiluncell Luminescent), tumor cell proliferation, H292; conditions: Homo sapiens, NCI-H292, 96 h; for inhibition at 0.01 µM: read-out: Inhibition Rate at 10 nM (%); for inhibition at 0.5 µM: read-out: Inhibition Rate at 500 nM (%)

Compound	substrate protein remaining % IKZF1 (IKZF1)	substrate protein remaining % GSPT1 (GSPT1)	substrate protein remaining % CK1α (CK1α)	substrate protein remaining % IKZF3 (IKZF3)	substrate protein remaining % WEE1 (WEE1)	substrate protein remaining % IKZF2 (IKZF2)	inhibition at 0.01 µM (H292) [%]	inhibition at 0.5 µM (H292) [%]
O=C1CCN(N2C(=O)c3ccc(CN4CC(c5ccnc6cc(F)ccc56)C4)cc3C2=O)C(=O)N1 [GT-07718, 2-(2,4-dioxotetrahydropyrimidin-1(2H)-yl)-5-((3-(7-fluoroquinolin-4-yl)azetidin-1-yl)methyl)isoindoline-1,3-dione]	B (80%< substrate protein remaining %≤ 100%)	A (0% ≤ substrate protein remaining % ≤ 80%)	A (0% ≤ substrate protein remaining % ≤ 80%)	A (0% ≤ substrate protein remaining % ≤ 80%)	B (80%< substrate protein remaining %≤ 100%)	B (80%< substrate protein remaining %≤ 100%)		
O=C1CCN(N2Cc3cc(CN4CCn5c(nnc5C(F)(F)F)C4)ccc3C2=O)C(=O)N1 [GT-07719, 1-(1-oxo-5-((3-(trifluoromethyl)-5,6-dihydro-[1,2,4]triazolo[4,3-a]pyrazin-7(8H)-yl)methyl)isoindolin-2-yl)dihydropyrimidine-2,4(1H,3H)-dione]	B (80%< substrate protein remaining %≤ 100%)	A (0% ≤ substrate protein remaining % ≤ 80%)	A (0% ≤ substrate protein remaining % ≤ 80%)	A (0% ≤ substrate protein remaining % ≤ 80%)	B (80%< substrate protein remaining %≤ 100%)	A (0% ≤ substrate protein remaining % ≤ 80%)		
O=C1CCN(N2Cc3cc(CN4CCc5sccc5C4)ccc3C2=O)C(=O)N1 [GT-07720, 1-(5-((6,7-dihydrothieno[3,2-c]pyridin-5(4H)-yl)methyl)-1-oxoisoindolin-2-yl)dihydropyrimidine-2,4(1H,3H)-dione]	A (0% ≤ substrate protein remaining % ≤ 80%)	A (0% ≤ substrate protein remaining % ≤ 80%)	A (0% ≤ substrate protein remaining % ≤ 80%)	A (0% ≤ substrate protein remaining % ≤ 80%)	A (0% ≤ substrate protein remaining % ≤ 80%)	A (0% ≤ substrate protein remaining % ≤ 80%)		
O=C1CCN(N2Cc3cc(CN4CCN(Cc5ccc(C67CC8CC(CC(C8)C6)C7)cc5)CC4)ccc3C2=O)C(=O)N1 [GT-07721, 1-(5-((4-(4-((3r,5r,7r)-adamantan-1-yl)benzyl)piperazin-1-yl)methyl)-1-oxoisoindolin-2-yl)dihydropyrimidine-2,4(1H,3H)-dione]	A (0% ≤ substrate protein remaining % ≤ 80%)	A (0% ≤ substrate protein remaining % ≤ 80%)	A (0% ≤ substrate protein remaining % ≤ 80%)	A (0% ≤ substrate protein remaining % ≤ 80%)	A (0% ≤ substrate protein remaining % ≤ 80%)	A (0% ≤ substrate protein remaining % ≤ 80%)		
O=C1CCN(N2C(=O)c3ccc(CN4CCN(Cc5ccc(C67CC8CC(CC(C8)C6)C7)cc5)CC4)cc3C2=O)C(=O)N1 [GT-07722, 5-((4-(4-((3r,5r,7r)-adamantan-1-yl)benzyl)piperazin-1-yl)methyl)-2-(2,4-dioxotetrahydropyrimidin-1(2H)-yl)isoindoline-1,3-dione]	B (80%< substrate protein remaining %≤ 100%)	A (0% ≤ substrate protein remaining % ≤ 80%)	A (0% ≤ substrate protein remaining % ≤ 80%)	A (0% ≤ substrate protein remaining % ≤ 80%)	A (0% ≤ substrate protein remaining % ≤ 80%)	A (0% ≤ substrate protein remaining % ≤ 80%)		
O=C1CCN(N2Cc3cc(CN4CC(n5cnc6cc(F)ccc65)C4)ccc3C2=O)C(=O)N1 [GT-07723, 1-(5-((3-(5-fluoro-1H-benzo[d]imidazol-1-yl)azetidin-1-yl)methyl)-1-oxoisoindolin-2-yl)dihydropyrimidine-2,4(1H,3H)-dione]							15 to 20	5 to 10
NCc1ccc2c(c1)C(=O)N(N1CCC(=O)NC1=O)C2=O [GT-07968, 5-(aminomethyl)-2-(2,4-dioxotetrahydropyrimidin-1(2H)-yl)isoindoline-1,3-dione]	A (0% ≤ substrate protein remaining % ≤ 80%)	B (80%< substrate protein remaining %≤ 100%)	A (0% ≤ substrate protein remaining % ≤ 80%)	A (0% ≤ substrate protein remaining % ≤ 80%)	A (0% ≤ substrate protein remaining % ≤ 80%)	A (0% ≤ substrate protein remaining % ≤ 80%)		
Cc1nc(N2CCN(Cc3ccc4c(c3)C(=O)N(N3CCC(=O)NC3=O)C4=O)CC2)c2ccsc2n1 [GT-08100, 2-(2,4-dioxotetrahydropyrimidin-1(2H)-yl)-5-((4-(2-methylthieno[2,3-d]pyrimidin-4-yl)piperazin-1-yl)methyl)isoindoline-1,3-dione]							5 to 10	10 to 15
CC1(C)[C@@H]2CC[C@]1(CS(=O)(=O)NCc1ccc3c(c1)CN(N1CCC(=O)NC1=O)C3=O)C(=O)C2 [GT-08133, 1-((1R,4R)-7,7-dimethyl-2-oxobicyclo[2.2.1]heptan-1-yl)-N-((2-(2,4-dioxotetrahydropyrimidin-1(2H)-yl)-1-oxoisoindolin-5-yl)methyl)methanesulfonamide]							15 to 20	20 to 40
O=C1CCN(N2C(=O)c3ccc(CN4CC=C(c5ncnc6scc(-c7ccccc7)c56)CC4)cc3C2=O)C(=O)N1 [GT-08431, 2-(2,4-dioxotetrahydropyrimidin-1(2H)-yl)-5-((4-(5-phenylthieno[2,3-d]pyrimidin-4-yl)-3,6-dihydropyridin-1(2H)-yl)methyl)isoindoline-1,3-dione]	B (80%< substrate protein remaining %≤ 100%)	B (80%< substrate protein remaining %≤ 100%)	B (80%< substrate protein remaining %≤ 100%)	B (80%< substrate protein remaining %≤ 100%)	A (0% ≤ substrate protein remaining % ≤ 80%)	A (0% ≤ substrate protein remaining % ≤ 80%)		
Cc1nc(C2=CCN(Cc3ccc4c(c3)C(=O)N(N3CCC(=O)NC3=O)C4=O)CC2)c2c3c(sc2n1)CCC3 [GT-08435, 2-(2,4-dioxotetrahydropyrimidin-1(2H)-yl)-5-((4-(2-methyl-6,7-dihydro-5H-cyclopenta[4,5]thieno[2,3-d]pyrimidin-4-yl)-3,6-dihydropyridin-1(2H)-yl)methyl)isoindoline-1,3-dione]	A (0% ≤ substrate protein remaining % ≤ 80%)	A (0% ≤ substrate protein remaining % ≤ 80%)	B (80%< substrate protein remaining %≤ 100%)	A (0% ≤ substrate protein remaining % ≤ 80%)	A (0% ≤ substrate protein remaining % ≤ 80%)	B (80%< substrate protein remaining %≤ 100%)		
O=C1CCN(N2Cc3cc(CN4CCN(c5nc(Cl)nc6ccsc56)CC4)ccc3C2=O)C(=O)N1 [GT-08444, 1-(5-((4-(2-chlorothieno[3,2-d]pyrimidin-4-yl)piperazin-1-yl)methyl)-1-oxoisoindolin-2-yl)dihydropyrimidine-2,4(1H,3H)-dione]	B (80%< substrate protein remaining %≤ 100%)	B (80%< substrate protein remaining %≤ 100%)	B (80%< substrate protein remaining %≤ 100%)	B (80%< substrate protein remaining %≤ 100%)	A (0% ≤ substrate protein remaining % ≤ 80%)	B (80%< substrate protein remaining %≤ 100%)		
O=C1CCN(N2C(=O)c3ccc(CN4CCN(c5nc(N6CCOCC6)nc6c5SCC6)CC4)cc3C2=O)C(=O)N1 [GT-08450, 2-(2,4-dioxotetrahydropyrimidin-1(2H)-yl)-5-((4-(2-morpholino-6,7-dihydrothieno[3,2-d]pyrimidin-4-yl)piperazin-1-yl)methyl)isoindoline-1,3-dione]	B (80%< substrate protein remaining %≤ 100%)	A (0% ≤ substrate protein remaining % ≤ 80%)	B (80%< substrate protein remaining %≤ 100%)	B (80%< substrate protein remaining %≤ 100%)	B (80%< substrate protein remaining %≤ 100%)	B (80%< substrate protein remaining %≤ 100%)		
O=C1CCN(N2Cc3cc(CN4CCN(c5nc(N6CCNCC6)c6sccc6n5)CC4)ccc3C2=O)C(=O)N1 [GT-08949, 1-(1-oxo-5-((4-(4-(piperazin-1-yl)thieno[3,2-d]pyrimidin-2-yl)piperazin-1-yl)methyl)isoindolin-2-yl)dihydropyrimidine-2,4(1H,3H)-dione]	B (80%< substrate protein remaining %≤ 100%)	A (0% ≤ substrate protein remaining % ≤ 80%)	B (80%< substrate protein remaining %≤ 100%)	B (80%< substrate protein remaining %≤ 100%)	B (80%< substrate protein remaining %≤ 100%)	B (80%< substrate protein remaining %≤ 100%)		
